Data on 18 compounds can be found in patent publication US10259810B2, “N-sulfonylated pyrazolo[3,4-b]pyridin-6-carboxamides and method of use” (AbbVie S.à.r.l., priority 2015, dated 2019).

The target in assay [1] is T1, ΔF508-CFTR (Homo sapiens, UniProt P13569, DEL508-508).
T1 construct: host or cells: CFBE41o-, doxycycline-inducible
The assay can be described thus: CFTR cell surface levels using HRP-tagged ΔF508-CFTR expressing CFBE cells, in the presence of a co-corrector. The class given is cell-based. The following applies: HRP-tagged ΔF508-CFTR CFBE cells, in the presence of 3 μM co-corrector; for EC50: read-out: EC50. The method in brief: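 Chemiluminescent read-out of surface HRP (15 min, dark) after PBS washes. Activity is normalized as 100×(sample−DMSO)/(3 μM co-corrector alone−DMSO).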

For assay [2], the target named is T1, ΔF508-CFTR. The assay can be described thus: CFTR cell surface levels using HRP-tagged ΔF508-CFTR expressing CFBE cells, intrinsic corrector capacity. The class given is cell-based. Also on record: % Activation: concentration or dose not given beside the values. Particulars: HRP-tagged ΔF508-CFTR expressing CFBE41o- cells, compound alone (intrinsic corrector capacity), 20 hours at 33° C.; for EC50: read-out: EC50. The method in brief: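 Surface ΔF508-CFTR was measured as HRP chemiluminescence from an extracellular-loop-4 tag, expressed as percent activity between DMSO and a […] corrector control.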

T1 sequence (P13569 with tags, fused parts or gaps DEL508-508): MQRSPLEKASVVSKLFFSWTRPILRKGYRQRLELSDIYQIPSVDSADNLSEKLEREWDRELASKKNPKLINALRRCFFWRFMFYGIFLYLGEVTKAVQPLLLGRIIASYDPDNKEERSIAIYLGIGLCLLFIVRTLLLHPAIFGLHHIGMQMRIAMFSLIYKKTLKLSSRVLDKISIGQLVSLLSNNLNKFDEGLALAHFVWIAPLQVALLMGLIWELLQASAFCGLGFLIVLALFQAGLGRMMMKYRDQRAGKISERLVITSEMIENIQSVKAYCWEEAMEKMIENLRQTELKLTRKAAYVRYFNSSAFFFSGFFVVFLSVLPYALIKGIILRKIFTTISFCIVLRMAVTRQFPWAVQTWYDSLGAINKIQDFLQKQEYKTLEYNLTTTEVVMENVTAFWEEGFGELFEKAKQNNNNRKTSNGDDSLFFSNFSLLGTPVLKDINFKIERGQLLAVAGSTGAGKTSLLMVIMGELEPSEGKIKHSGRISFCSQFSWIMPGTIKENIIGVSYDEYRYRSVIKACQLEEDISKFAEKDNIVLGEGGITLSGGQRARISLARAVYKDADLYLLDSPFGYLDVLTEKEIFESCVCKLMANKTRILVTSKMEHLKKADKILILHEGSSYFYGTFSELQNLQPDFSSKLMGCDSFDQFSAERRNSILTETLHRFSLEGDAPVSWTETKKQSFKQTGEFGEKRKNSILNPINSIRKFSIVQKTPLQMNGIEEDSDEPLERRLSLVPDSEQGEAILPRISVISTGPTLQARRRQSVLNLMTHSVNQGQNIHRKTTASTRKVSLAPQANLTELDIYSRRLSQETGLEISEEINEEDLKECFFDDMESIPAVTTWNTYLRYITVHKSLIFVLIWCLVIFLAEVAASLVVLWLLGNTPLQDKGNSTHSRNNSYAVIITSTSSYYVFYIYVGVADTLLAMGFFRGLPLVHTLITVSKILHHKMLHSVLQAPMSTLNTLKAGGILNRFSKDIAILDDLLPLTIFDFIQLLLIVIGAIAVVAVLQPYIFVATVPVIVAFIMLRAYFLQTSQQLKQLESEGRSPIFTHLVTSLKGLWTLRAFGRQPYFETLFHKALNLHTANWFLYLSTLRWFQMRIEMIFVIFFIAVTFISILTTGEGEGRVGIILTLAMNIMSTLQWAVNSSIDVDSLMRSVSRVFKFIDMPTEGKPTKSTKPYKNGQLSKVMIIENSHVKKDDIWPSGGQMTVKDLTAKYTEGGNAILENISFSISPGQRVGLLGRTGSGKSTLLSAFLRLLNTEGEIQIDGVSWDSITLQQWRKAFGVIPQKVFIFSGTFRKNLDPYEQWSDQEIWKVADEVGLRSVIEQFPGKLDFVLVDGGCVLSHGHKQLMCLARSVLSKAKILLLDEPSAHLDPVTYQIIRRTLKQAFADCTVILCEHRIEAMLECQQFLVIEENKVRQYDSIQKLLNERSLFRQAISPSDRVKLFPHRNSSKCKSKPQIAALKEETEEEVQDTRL

Usually EC50 stands for the concentration giving half of the maximal effect. With `Cc1nn(-c2ccc(OC(F)(F)F)cc2)c2nc(C(=O)NS(C)(=O)=O)cc(-c3ccc(N4CCOCC4)cc3)c12` [Compound 69, N-(methanesulfonyl)-3-methyl-4-[4-(morpholin-4-yl)phenyl]-1-[4-(trifluoromethoxy)phenyl]-1H-pyrazolo[3,4-b]pyridine-6-carboxamide], in assay [1], the “% Activation” value turned out to be 362.03% and the EC50 stood at 0.404 µM. In assay [2], the “% Activation” value was 182.08% and the EC50 worked out at 0.632 µM.

As to `CCS(=O)(=O)NC(=O)c1cc(-c2ccc(N3CCOCC3)cc2)c2c(C)nn(-c3ccc(OC(F)(F)F)cc3)c2n1` [Compound 70, N-(ethanesulfonyl)-3-methyl-4-[4-(morpholin-4-yl)phenyl]-1-[4-(trifluoromethoxy)phenyl]-1H-pyrazolo[3,4-b]pyridine-6-carboxamide], in assay [1], the “% Activation” value was 342.85% and the EC50 was 0.41 µM. In assay [2], the “% Activation” value was 167.8% and the half-maximal effective concentration (EC50) amounted to 0.621 µM.

Consider `COc1cccc(-n2nc(C)c3c(-c4ccc(N5CCOCC5)cc4)cc(C(=O)NS(C)(=O)=O)nc32)c1` [Compound 72, N-(methanesulfonyl)-1-(3-methoxyphenyl)-3-methyl-4-[4-(morpholin-4-yl)phenyl]-1H-pyrazolo[3,4-b]pyridine-6-carboxamide], for which the “% Activation” value in assay [1] was 400.9%; in assay [2], 232.5%. Besides, the results for the EC50 in assay [1] and in assay [2] were 5.61 µM and 2.23 µM, respectively.

On to `CCS(=O)(=O)NC(=O)c1cc(-c2ccc(N3CCOCC3)cc2)c2c(C)nn(-c3cccc(OC)c3)c2n1` [Compound 73, N-(ethanesulfonyl)-1-(3-methoxyphenyl)-3-methyl-4-[4-(morpholin-4-yl)phenyl]-1H-pyrazolo[3,4-b]pyridine-6-carboxamide], for which the “% Activation” value in assay [1] came to 423.35%; in assay [2], 254.1%. Moreover, the EC50 is 0.49 µM in assay [1] and 0.657 µM in assay [2].

Take `COCCN(C)c1cccc(-n2nc(C(C)C)c3c(-c4ccc(N5CCOCC5)cc4)cc(C(=O)NS(C)(=O)=O)nc32)c1` [Compound 76, N-(methanesulfonyl)-1-{3-[(2-methoxyethyl)(methyl)amino]phenyl}-4-[4-(morpholin-4-yl)phenyl]-3-(propan-2-yl)-1H-pyrazolo[3,4-b]pyridine-6-carboxamide]: in assay [1], the “% Activation” value came out at 581.37% and the EC50 worked out at 0.633 µM. Besides, in assay [2], the “% Activation” value amounted to 430.87% and the half-maximal effective concentration (EC50) came out at 0.528 µM.

As to `CC(C)c1nn(-c2cccc(N(C)C)c2)c2nc(C(=O)NS(C)(=O)=O)cc(-c3cnc(N(C)C)nc3)c12` [Compound 77, 1-[3-(dimethylamino)phenyl]-4-[2-(dimethylamino)pyrimidin-5-yl]-N-(methanesulfonyl)-3-(propan-2-yl)-1H-pyrazolo[3,4-b]pyridine-6-carboxamide], in assay [1], the “% Activation” value amounted to 449.85% and the EC50 came to 0.831 µM. Further, in assay [2], the “% Activation” value worked out at 296.45% and the EC50 amounted to 0.639 µM.

`CCS(=O)(=O)NC(=O)c1cc(-c2cnc(N(C)C)nc2)c2c(C(C)C)nn(-c3cccc(N(C)C)c3)c2n1` [Compound 78, 1-[3-(dimethylamino)phenyl]-4-[2-(dimethylamino)pyrimidin-5-yl]-N-(ethanesulfonyl)-3-(propan-2-yl)-1H-pyrazolo[3,4-b]pyridine-6-carboxamide]: the “% Activation” value is 520.7% in assay [1] and 333.2% in assay [2]. Also, the EC50 in assay [1] amounted to 0.66 µM; in assay [2], 1.88 µM.

Take `CC(=O)Nc1ccc(-c2cc(C(=O)NS(C)(=O)=O)nc3c2c(C(C)C)nn3C2CCCCC2)cc1` [Compound 79, 4-(4-acetamidophenyl)-1-cyclohexyl-N-(methanesulfonyl)-3-(propan-2-yl)-1H-pyrazolo[3,4-b]pyridine-6-carboxamide]: the “% Activation” value is 501.6% in assay [1] and 280.9% in assay [2]. The figures for the EC50 in assay [1] and in assay [2] were 0.555 µM and 1.23 µM, respectively.

For the compound `CC(C)c1nn(-c2cccc(N(C)C)c2)c2nc(C(=O)NS(C)(=O)=O)cc(-c3ccc(N4CCC(C#N)CC4)cc3)c12` [Compound 81, 4-[4-(4-cyanopiperidin-1-yl)phenyl]-1-[3-(dimethylamino)phenyl]-N-(methanesulfonyl)-3-(propan-2-yl)-1H-pyrazolo[3,4-b]pyridine-6-carboxamide], the figures for the “% Activation” value in assay [1] and in assay [2] were 646.44% and 495.8%, respectively. In addition, the results for the EC50 in assay [1] and in assay [2] were 0.253 µM and 0.385 µM, respectively.

For `COCCN(C)c1ccc(-c2cc(C(=O)NS(C)(=O)=O)nc3c2c(C(C)C)nn3-c2cccc(N(C)C)c2)cc1` [Compound 82, 1-[3-(dimethylamino)phenyl]-N-(methanesulfonyl)-4-{4-[(2-methoxyethyl)(methyl)amino]phenyl}-3-(propan-2-yl)-1H-pyrazolo[3,4-b]pyridine-6-carboxamide], in assay [1], the “% Activation” value came to 535.93% and the concentration for a half-maximal effect (EC50) came out at 0.383 µM. Also, in assay [2], the “% Activation” value was 366.27% and the EC50 was 0.472 µM.

Take `CC(C)c1nn(-c2cccc(N(C)C)c2)c2nc(C(=O)NS(C)(=O)=O)cc(-c3ccc(N4CCC(C#N)CC4)nc3)c12` [Compound 83, 4-[6-(4-cyanopiperidin-1-yl)pyridin-3-yl]-1-[3-(dimethylamino)phenyl]-N-(methanesulfonyl)-3-(propan-2-yl)-1H-pyrazolo[3,4-b]pyridine-6-carboxamide]: in assay [1], the “% Activation” value came out at 567.7% and the EC50 was 0.425 µM. Moreover, in assay [2], the “% Activation” value came out at 391.5% and the EC50 is 0.547 µM.

Take `COCCN(C)c1ccc(-c2cc(C(=O)NS(C)(=O)=O)nc3c2c(C(C)C)nn3-c2cccc(N(C)C)c2)cn1` [Compound 84, 1-[3-(dimethylamino)phenyl]-N-(methanesulfonyl)-4-{6-[(2-methoxyethyl)(methyl)amino]pyridin-3-yl}-3-(propan-2-yl)-1H-pyrazolo[3,4-b]pyridine-6-carboxamide]: the “% Activation” value worked out at 468.2% in assay [1] and 311.7% in assay [2]. The figures for the EC50 in assay [1] and in assay [2] were 0.408 µM and 0.66 µM, respectively.

Consider `COCCN(C)c1ccc(-c2cc(C(=O)NS(C)(=O)=O)nc3c2c(C(C)C)nn3-c2cccc(N3CCOCC3)c2)cc1` [Compound 88, N-(methanesulfonyl)-4-{4-[(2-methoxyethyl)(methyl)amino]phenyl}-1-[3-(morpholin-4-yl)phenyl]-3-(propan-2-yl)-1H-pyrazolo[3,4-b]pyridine-6-carboxamide], for which, in assay [1], the “% Activation” value stood at 546.2% and the EC50 worked out at 0.413 µM. In assay [2], the “% Activation” value was 389.73% and the EC50 was found to be 0.474 µM.

For `CC(C)c1nn(-c2cccc(N(C)C)c2)c2nc(C(=O)NS(C)(=O)=O)cc(-c3ccc(N(C)C4CCOCC4)nc3)c12` [Compound 89, 1-[3-(dimethylamino)phenyl]-N-(methanesulfonyl)-4-{6-[methyl(oxan-4-yl)amino]pyridin-3-yl}-3-(propan-2-yl)-1H-pyrazolo[3,4-b]pyridine-6-carboxamide], the “% Activation” value in assay [1] is 609.48%; in assay [2] it was 422.78%. In addition, the EC50 in assay [1] stood at 0.396 µM; in assay [2] it was 0.646 µM.

As for `CCS(=O)(=O)NC(=O)c1cc(-c2ccc(N(C)C3CCOCC3)nc2)c2c(C(C)C)nn(C3CCCCC3)c2n1` [Compound 90, 1-cyclohexyl-N-(ethanesulfonyl)-4-{6-[methyl(oxan-4-yl)amino]pyridin-3-yl}-3-(propan-2-yl)-1H-pyrazolo[3,4-b]pyridine-6-carboxamide], in assay [1], the “% Activation” value is listed as 384.95% and the EC50 was determined as 0.389 µM. For the same compound, in assay [2], the “% Activation” value came to 163.75% and the EC50 is 0.486 µM.

For the compound `CCS(=O)(=O)NC(=O)c1cc(-c2ccc(N(C)C)nc2)c2c(C3CC3)nn(C3CCCCC3)c2n1` [Compound 92, 1-cyclohexyl-3-cyclopropyl-4-[6-(dimethylamino)pyridin-3-yl]-N-(ethanesulfonyl)-1H-pyrazolo[3,4-b]pyridine-6-carboxamide], in assay [1], the “% Activation” value was determined as 367.67% and the EC50 came to 0.278 µM. Besides, in assay [2], the “% Activation” value is listed as 175.77% and the EC50 was 0.553 µM.

Turning to `CC(C)c1nn(C2CCCCC2)c2nc(C(=O)NS(C)(=O)=O)cc(-c3ccc(N4CCOC(C)(C)C4)nc3)c12` [Compound 94, 1-cyclohexyl-4-[6-(2,2-dimethylmorpholin-4-yl)pyridin-3-yl]-N-(methanesulfonyl)-3-(propan-2-yl)-1H-pyrazolo[3,4-b]pyridine-6-carboxamide], in assay [1], the “% Activation” value was 421.53% and the EC50 amounted to 0.342 µM. Also, in assay [2], the “% Activation” value is listed as 193.5% and the EC50 came to 0.614 µM.

Consider `CC(C)c1nn(-c2cccc(N3CCOCC3)c2)c2nc(C(=O)NS(C)(=O)=O)cc(-c3ccc(N(C)C4CCOCC4)cc3)c12` [Compound 97, N-(methanesulfonyl)-4-{4-[methyl(oxan-4-yl)amino]phenyl}-1-[3-(morpholin-4-yl)phenyl]-3-(propan-2-yl)-1H-pyrazolo[3,4-b]pyridine-6-carboxamide], for which, in assay [1], the “% Activation” value is 692.82% and the EC50 worked out at 0.277 µM. In assay [2], the “% Activation” value was found to be 444.85% and the EC50 turned out to be 0.399 µM.
